Reference: patent publication US20220323406A1, “METHODS AND COMPOSITIONS FOR DIFFERENTIATING STEM CELLS” (Massachusetts Institute of Technology, priority 2019, published 2022)

Tests used:
[1] = test system: ENR+CD organoids (ISC to Paneth cell differentiation); test: Primary screen: basal (non-stimulated) lysozyme secretion LYZ.NS, 2.5-D 384-well ENR+CD organoid differentiation; format: cell-based, mouse
From the text: (§1) High-throughput screening.

[2] = test system: ENR+CD organoids (ISC to Paneth cell differentiation); test: Primary screen: CCh-stimulated lysozyme secretion LYZ.S, 2.5-D 384-well ENR+CD organoid differentiation; format: cell-based, mouse; details: primary screen
From the text: as §1

ENR+CD organoids = test: Primary screen: ATP (CellTiter-Glo 3D, CTG) cell number/viability, 2.5-D 384-well ENR+CD organoids; details: primary screen; for Z.CTG: standard z score;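 as to all read-outs here: compounds given at plating and again on day 3 over a 6-day differentiation from ENR+CV stem-cell-enriched precursors, ATP measured on day 6, plate median as control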
[3] = primary screen, dose 0.08 uM, standard z score
[4] = primary screen, dose 0.40 uM, standard z score
[5] = primary screen, dose 2.00 uM, standard z score
[6] = primary screen, dose 10.00 uM, standard z score
[7] = primary screen; dose 0.08 uM; FC vs plate median
[8] = primary screen; dose 0.40 uM; FC vs plate median
[9] = primary screen; dose 2.00 uM; FC vs plate median
[10] = primary screen; dose 10.00 uM; FC vs plate median
[11] = dose 0.08 uM, FC vs plate median
[12] = dose 0.40 uM, FC vs plate median
[13] = dose 2.00 uM, FC vs plate median
[14] = dose 10.00 uM, FC vs plate median
[15] = dose 0.08 uM, FC relative to plate median
[16] = dose 0.40 uM, FC relative to plate median
[17] = dose 2.00 uM, FC relative to plate median
[18] = dose 10.00 uM, FC relative to plate median

SMILES | Z.LYZ.NS [1, 3] | Z.LYZ.NS [1, 4] | Z.LYZ.NS [1, 5] | Z.LYZ.NS [1, 6] | Dose.FC.LYZ.NS [1, 7] | Dose.FC.LYZ.NS [1, 8] | Dose.FC.LYZ.NS [1, 9] | Dose.FC.LYZ.NS [1, 10] | Dose.FC.LYZ.S [2, 11] | Dose.FC.LYZ.S [2, 12] | Dose.FC.LYZ.S [2, 13] | Dose.FC.LYZ.S [2, 14] | Dose.FC.CTG (ENR+CD organoids; [11]) | Dose.FC.CTG (ENR+CD organoids; [12]) | Dose.FC.CTG (ENR+CD organoids; [13]) | Dose.FC.CTG (ENR+CD organoids; [14]) | Z.CTG (ENR+CD organoids; dose 0.08 uM) | Z.CTG (ENR+CD organoids; dose 0.40 uM) | Z.CTG (ENR+CD organoids; dose 2.00 uM) | Z.CTG (ENR+CD organoids; dose 10.00 uM) | further results
Cc1ccccc1C(=O)Nc1ccc(C(=O)N2CCCC(N(C)C)c3ccccc32)cc1 (stereo not drawn) [Mozavaptan] | 0.584 | −0.233 | 0.294 | −1.752 | 0.067 log2 fold change | −0.027 log2 fold change | 0.034 log2 fold change | −0.201 log2 fold change | 0.086 log2 fold change | 0.165 log2 fold change | 0.106 log2 fold change | −0.270 log2 fold change | 0.320 log2 fold change | 0.235 log2 fold change | 0.108 log2 fold change | −0.336 log2 fold change | – | – | – | – | –
CS(=O)(=O)c1cccc(CNc2nc(Nc3ccc4c(c3)CCC(=O)N4)ncc2C(F)(F)F)c1 [PF-573228] | 0.089 | −0.401 | −0.502 | −2.180 | 0.010 log2 fold change | −0.046 log2 fold change | −0.058 log2 fold change | −0.250 log2 fold change | 0.114 log2 fold change | 0.002 log2 fold change | −0.174 log2 fold change | −0.305 log2 fold change | 0.077 log2 fold change | −0.054 log2 fold change | −0.434 log2 fold change | −0.497 log2 fold change | 0.183 | −0.129 | −1.037 | −1.188 | –
CCN(CC)C(=O)/C(C#N)=C/c1cc(O)c(O)c([N+](=O)[O-])c1 [Entacapone] | – | – | – | – | – | – | – | – | – | – | – | – | – | – | – | – | – | – | – | – | Dose.FC.LYZ.NS ([1]; primary screen, dose 0.08 uM): 0.136 log2 fold change; Dose.FC.LYZ.NS ([1]; primary screen, dose 0.40 uM): 0.012 log2 fold change; Dose.FC.LYZ.NS ([1]; primary screen, dose 2.00 uM): 0.085 log2 fold change; Dose.FC.LYZ.NS ([1]; primary screen, dose 10.00 uM): 0.100 log2 fold change; Z.LYZ.NS ([1]; primary screen, standard z score, dose 0.08 uM): 1.183; Z.LYZ.NS ([1]; primary screen, standard z score, dose 0.40 uM): 0.102; Z.LYZ.NS ([1]; primary screen, standard z score, dose 2.00 uM): 0.744; Z.LYZ.NS ([1]; primary screen, standard z score, dose 10.00 uM): 0.870; Dose.FC.LYZ.S ([2]; dose 0.08 uM): 0.020 log2 fold change; Dose.FC.LYZ.S ([2]; dose 0.40 uM): 0.024 log2 fold change; Dose.FC.LYZ.S ([2]; dose 2.00 uM): 0.072 log2 fold change; Dose.FC.LYZ.S ([2]; dose 10.00 uM): 0.027 log2 fold change; Dose.FC.CTG (ENR+CD organoids; dose 0.08 uM): −0.115 log2 fold change; Dose.FC.CTG (ENR+CD organoids; dose 0.40 uM): −0.065 log2 fold change; Dose.FC.CTG (ENR+CD organoids; dose 2.00 uM): 0.206 log2 fold change; Dose.FC.CTG (ENR+CD organoids; dose 10.00 uM): −0.391 log2 fold change
COc1c(C)c(C(=O)c2ccc(N)c(C(=O)[O-])c2)n2ccccc12.[Na+] [SSR128129E] | 0.807 | 0.339 | 0.257 | −0.850 | – | – | – | – | – | – | – | – | – | – | – | – | 0.210 | 0.545 | 0.291 | −0.063 | Dose.FC.LYZ.NS ([1]; primary screen, dose 0.08 uM, FC relative to plate median): 0.093 log2 fold change; Dose.FC.LYZ.NS ([1]; primary screen, dose 0.40 uM, FC relative to plate median): 0.039 log2 fold change; Dose.FC.LYZ.NS ([1]; primary screen, dose 2.00 uM, FC relative to plate median): 0.030 log2 fold change; Dose.FC.LYZ.NS ([1]; primary screen, dose 10.00 uM, FC relative to plate median): −0.098 log2 fold change; Dose.FC.LYZ.S [2, 15]: 0.086 log2 fold change; Dose.FC.LYZ.S [2, 16]: 0.122 log2 fold change; Dose.FC.LYZ.S [2, 17]: 0.023 log2 fold change; Dose.FC.LYZ.S [2, 18]: −0.095 log2 fold change; Dose.FC.CTG (ENR+CD organoids; [15]): 0.088 log2 fold change; Dose.FC.CTG (ENR+CD organoids; [16]): 0.228 log2 fold change; Dose.FC.CTG (ENR+CD organoids; [17]): 0.122 log2 fold change; Dose.FC.CTG (ENR+CD organoids; [18]): −0.026 log2 fold change
